Laboratory results reported in paper PMC9779817, “Identification of New Purpuroine Analogues from the Arctic Echinodermata Pteraster militaris That Inhibit FLT3-ITD^+ AML Cell Lines” (International Journal of Molecular Sciences, 2022).
≈ marks a conversion by molar mass, not a printed value.

Experiments:
Aurobasidium pollulans = assay: Antifungal growth inhibition assay; format: cell-based; conditions: positive control
Protocol: (§4) The yeast strains Candida albicans (ATCC 10231) and Rhodotrula sp. and the Aurobasidium pollulans mold, were cultivated on potato dextrose agar with 2% glucose at room temperature. Fungal spores were dissolved in potato dextrose broth (Difco Laboratories, USA) and the cell concentration was determined and adjusted after counting in a Bürker chamber. […] The assay plates were incubated in a moist dark chamber at 37 °C. […] Growth inhibition was determined microscopically after 42 h incubation.

Rhodotrula sp. = assay: Antifungal growth inhibition assay; format: cell-based; conditions: positive control
Protocol: as §4

HepG2 = assay: Viability screening, colorimetric MTS assay; format: cell-based; parameters: key: Active: active compound was defined as ≤50% survival at one of the concentrations; Inactive; conditions: HepG2, liver hepatocellular carcinoma; screened at 10 and 50 µM; 24 h
Protocol: (§1) All cell lines were purchased from ATCC (Manassa, VA, USA) except MOLM-13 that was purchased from Leibniz Institute DSMZ (Braunschweig, Germany). Viability screening of compounds 1–3 at 10 and 50µM was performed by a colorimetric MTS assay. The cells were seeded into 96-well microtiter plates (Nunclon^TM Delta Surface, Thermo Scientific, Roskilde, Denmark) in RPMI-1640 supplemented with 10% FBS and 10µg/mL Gentamycin (assay media). The adherent cell lines A2058, HaCat and HT29 were seeded in a density of 2000 cells/well, MRC5 were seeded in a density of 4000 cells/well and SK-BR-3 and MDA-MB-468 were seeded in a density of 5000 cells/well. After incubation for 24 h in 37 °C and 5% CO2 the media was discarded and replaced by samples diluted in assay media, negative control (100% cell survival, 100% assay media) and positive control (0% cell survival, 90% assay media supplemented with 10% DMSO). The suspension cell lines MV-4-11 and MOLT-4 were directly seeded in a density of 10,000 cells/well and MOLM-13 and THP-1 were seeded in a density of 20,000 cells/well in assay media supplemented with sample. All samples were added in triplicates. Cells and samples were incubated for a total of 72 h (HepG2 cells were incubated for 24 h) at 37 °C and 5% CO2. Thereafter, 10% CellTiter 96®AQueous One Solution Reagent (G3581, Promega) containing tetrazolium compound [3-(4,5-dimethylthiazol-2-yl)-5-(3-carboxymethoxyphenyl)-2-(4-sulfophenyl)-2H-tetrazolium] and phenazine ethosulfate were added. After 1 h incubation the absorbances was measured at 485 nm with a DTX 880 and viability was calculated.

SK-BR-3 = assay: Viability screening, colorimetric MTS assay; format: cell-based; parameters: key: Active: active compound was defined as ≤50% survival at one of the concentrations; Inactive; conditions: SK-BR-3, breast cancer; screened at 10 and 50 µM; 72 h
Protocol: as §1

HT29 = assay: Viability screening, colorimetric MTS assay; format: cell-based; parameters: key: Active: active compound was defined as ≤50% survival at one of the concentrations; Inactive; conditions: HT29, colon cancer; screened at 10 and 50 µM; 72 h
Protocol: as §1

MRC5 = assay: Viability screening, colorimetric MTS assay; format: cell-based; parameters: key: Active: active compound was defined as ≤50% survival at one of the concentrations; Inactive; conditions: MRC5, lung fibroblasts (non-cancerous); screened at 10 and 50 µM; 72 h
Protocol: as §1

MOLT-4 = assay: Viability screening, colorimetric MTS assay; format: cell-based; parameters: key: Active: active compound was defined as ≤50% survival at one of the concentrations; Inactive; conditions: MOLT-4, acute lymphoblastic leukemia; screened at 10 and 50 µM; 72 h
Protocol: as §1

MDA-MB-468 = assay: Viability screening, colorimetric MTS assay; format: cell-based; parameters: key: Active: active compound was defined as ≤50% survival at one of the concentrations; Inactive; conditions: MDA-MB-468, breast cancer; screened at 10 and 50 µM; 72 h
Protocol: as §1

THP-1 = assay: Viability screening, colorimetric MTS assay; format: cell-based; parameters: key: Active: active compound was defined as ≤50% survival at one of the concentrations; Inactive; conditions: THP-1, acute monocytic leukemia; screened at 10 and 50 µM; 72 h
Protocol: as §1

HaCat = assay: Viability screening, colorimetric MTS assay; format: cell-based; parameters: key: Active: active compound was defined as ≤50% survival at one of the concentrations; Inactive; conditions: keratinocytes (non-cancerous), screened at 10 and 50 µM, 72 h
Protocol: as §1

MV-4-11 = assay: Viability screening and IC50 determination, MTS assay; format: cell-based, human; parameters: key to Activity at ≤50 µM: Active: active compound was defined as ≤50% survival at one of the concentrations; Inactive; conditions: for Activity at ≤50 µM: MV-4-11, acute myeloid leukemia, screened at 10 and 50 µM, 72 h
Protocol: as §1

FLT3-ITD mutant = FLT3-ITD mutant (Homo sapiens, UniProt P36888); format: binding; conditions: concentrations tested up to 10 μM
Protocol: (§2) A FRET signal is generated between an Europium-labelled tag, on the FLT3 kinase, and a fluorescent tracer with high binding affinity for the FLT3 active site.
(§3) Anti-GST-Eu-tagged monoclonal antibodies (anti-GST AB) were purchase from Cisbio (PerkinElmer Norge AS, catalogue number 61GSTKLA) and reconstituted in water at a final concentration of 333 nM. White, non-binding, round bottom 384 well microplates (reference number 4513) were purchased from Corning (Corning Inc, Kennebunk, ME, USA). The compounds were serially diluted into DMSO to 12 different concentrations. Each of these compound-containing DMSO solutions was further diluted 33 times in assay buffer A (50 mM HEPES pH 7.5, 10 mM MgCl2, 1 mM ethylene glycol-bis(β-aminoethyl ether)-N,N,N′,N′-tetraacetic acid (EGTA) and 0.01% BRIJ-35) and 5 μL of these solutions were dispensed in triplicates in 384 well plate. […] Fluorescence measurements were made using a EnVision 2104 Multilabel reader, (PerkinElmer, US), excitation wavelength was set to 340 nm and emission was read at both 615 nm (8.5 nm bandwidth) and 665 nm (7.5 nm bandwidth) over […] between excitation and emission measurements.

MOLM-13 = assay: Viability screening, colorimetric MTS assay; format: cell-based, human; parameters: key: Active: active compound was defined as ≤50% survival at one of the concentrations; Inactive; conditions: MOLM-13, acute myeloid leukemia; screened at 10 and 50 µM; 72 h
Protocol: as §1

MV-4-11 cells [1] = assay: Cell cycle analysis (PI staining, flow cytometry); format: cell-based, human; conditions: 24 h, compared to control
Protocol: MV-4-11 cells were seeded into 24-well plates (Nunclon^TM Delta Surface, Thermo Scientific) in a density of 1 × 10^6 cells/mL supplemented with 26 µM, 52 µM or 104 µM of 1. The cells were incubated for 24 h and thereafter fixed in ice cold 70% EtOH. After washing the cells were stained with FxCycle™ PI/RNase Staining Solution (Invitrogen, MA, USA) according to manufacturer’s instructions. The cells were analysed by a CytoFLEX Flow cytometer (Beckman Coulter, CA, USA) and cell cycle phase determined in CytExpert software (Beckman Coulter).

MV-4-11 cells [2] = assay: Apoptosis assay (annexin V/PI staining, flow cytometry); format: cell-based, human; conditions: 26 µM (1 × IC50); 24 h
Protocol: To further investigate the cell death pathway activated by 1, an apoptosis assay was performed and the ability of 1 to induce apoptosis and/or necrosis in MV-4-11 cell line was evaluated by annexin V/PI staining (Figure 5). The cells were divided into 3 different populations: annexin V−/PI− (healthy cells), annexin V+/PI− (apoptotic cells) and annexin V+/PI+ (late apoptotic/necrotic cells). […] However, after 24 h and 48 h of incubation at the highest concentration of compound (104 µM), no increase in apoptotic cells were seen when compared to cells incubated with 52 µM.
MV-4-11 cells were seeded into 24-well plates (Nunclon^TM Delta Surface, Thermo Scientific) at a density of 1 × 10^6 cells/mL supplemented with 26 µM, 52 µM or 104 µM of 1 and incubated for 24 or 48 h at 37 °C an 5% CO2. Apoptotic and necrotic cells were labelled according to manufacturer’s instructions (Alexa Fluor^TM 488 Annexin V/Dead Cell Apoptosis Kit, Invitrogen) and analysed by a CytoFLEX Flow cytometer and CytExpert software (Beckman Coulter).

A2058 = assay: Viability screening, human melanoma cell line; format: cell-based; parameters: key: Active: active compound was defined as ≤50% survival at one of the concentrations; Inactive; conditions: screened at 10 and 50 µM, 72 h
Protocol: The flash fractions of P. militaris were assayed for activity against the human melanoma cancer cell line A2058 at 50 µg/mL. […] The flash fractions were also assayed against the human pathogenic bacterial strains Staphylococcus aureus, Enterococcus faecalis, Escherichia coli, Pseudomonas aeruginosa and Streptococcus agalactiae (Gr. B).
as §1

FLT3 WT = target: T1, FLT3 WT (Homo sapiens, UniProt P36888); assay: Kinase binding assay (FRET tracer competition); conditions: concentrations tested up to 10 μM
T1 construct: purchased ThermoFisher Scientific PV3182
T1 sequence (P36888 564-993 limits assumed): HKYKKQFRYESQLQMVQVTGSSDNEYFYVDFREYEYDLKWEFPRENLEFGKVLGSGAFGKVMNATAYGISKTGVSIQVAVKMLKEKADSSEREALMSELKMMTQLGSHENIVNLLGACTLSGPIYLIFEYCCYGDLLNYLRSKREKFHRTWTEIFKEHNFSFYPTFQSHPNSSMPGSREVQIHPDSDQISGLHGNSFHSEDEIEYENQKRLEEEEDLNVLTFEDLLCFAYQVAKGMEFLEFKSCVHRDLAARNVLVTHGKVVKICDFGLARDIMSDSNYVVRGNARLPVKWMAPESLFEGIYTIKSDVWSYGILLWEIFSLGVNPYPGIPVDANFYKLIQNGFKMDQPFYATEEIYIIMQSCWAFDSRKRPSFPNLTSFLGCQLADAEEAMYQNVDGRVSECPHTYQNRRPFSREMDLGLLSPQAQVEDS
Protocol: as §2, §3

For `C[C@@H]1[C@H](O)[C@@H](C)/C=C/C=C/C=C/C=C/C=C/C=C/C=C/[C@H](O[C@@H]2O[C@H](C)[C@@H](O)[C@H](N)[C@@H]2O)C[C@@H]2O[C@](O)(C[C@@H](O)C[C@@H](O)[C@H](O)CC[C@@H](O)C[C@@H](O)CC(=O)O[C@H]1C)C[C@H](O)[C@H]2C(=O)O` [amphotericin-B], the MIC (Aurobasidium pollulans) was 8.7 µM (≈ 8.04 µg/mL) and the MIC (Rhodotrula sp.) was 8.7 µM (≈ 8.04 µg/mL).
`COC(=O)[C@@H](CCOc1c(Br)cc(Br)cc1Br)[N+](C)(C)C` [compound 1, purpuroine K] was tested, and the “Activity at ≤50 µM” value (HepG2) was “I”, the “Activity at ≤50 µM” value (SK-BR-3) was “I” and the “Activity at ≤50 µM” value (HT29) was “I”. For the same compound, the “Activity at ≤50 µM” value (MRC5) was “I ^2”, the “Activity at ≤50 µM” value (MOLT-4) was “I” and the “Activity at ≤50 µM” value (MDA-MB-468) was “I”. For the same compound, the “Activity at ≤50 µM” value (THP-1) was “I”, the “Activity at ≤50 µM” value (HaCat) was “I” and the IC50 (MV-4-11; Homo sapiens, MV4-11, MV-4-11 cell line, read-out: IC50 against MV-4-11) was 26 ± 1.2 µM. The “Activity at ≤50 µM” value (MV-4-11) was “Active”, the “binding to FLT-ITD mutant active site” value (FLT3-ITD mutant) was “does not bind” and the “Activity at ≤50 µM” value (MOLM-13) was “Active”. For the same compound, the “decrease of cells entering G2/M-phase” value (MV-4-11 cells [1]; 52 µM) was 26%, the “decrease of cells entering the S-phase” value (MV-4-11 cells [1]; 52 µM) was 23% and the “increase in the number of cells arrested in G0/G1 phase” value (MV-4-11 cells [1]; 52 µM) was 11%. For the same compound, the “decrease of cells entering G2/M-phase” value (MV-4-11 cells [1]; 104 µM) was 55%, the “decrease of cells entering the S-phase” value (MV-4-11 cells [1]; 104 µM) was 38% and the “increase in the number of cells arrested in G0/G1 phase” value (MV-4-11 cells [1]; 104 µM) was 19%. The “increase in percentage of apoptotic cells compared to control” value (MV-4-11 cells [2]) was 94%, the “Activity at ≤50 µM” value (A2058) was “I” and the “binding to FLT3 WT active site” value (FLT3 WT) was “does not bind”.
For `COC(=O)[C@@H](CCOc1c(Cl)cc(Br)cc1Br)[N+](C)(C)C` [compound 2, purpuroine L], the “Activity at ≤50 µM” value (HepG2) was “I”, the “Activity at ≤50 µM” value (SK-BR-3) was “I” and the “Activity at ≤50 µM” value (HT29) was “I”. The “Activity at ≤50 µM” value (MRC5) was “I”, the “Activity at ≤50 µM” value (MOLT-4) was “I” and the “Activity at ≤50 µM” value (MDA-MB-468) was “I”. For the same compound, the “Activity at ≤50 µM” value (THP-1) was “I”, the “Activity at ≤50 µM” value (HaCat) was “I” and the “Activity at ≤50 µM” value (MV-4-11) was “I”. The “Activity at ≤50 µM” value (MOLM-13) was “I” and the “Activity at ≤50 µM” value (A2058) was “I”.
For `COC(=O)[C@@H](CCOc1c(Cl)cc(Br)cc1Cl)[N+](C)(C)C` [compound 3, purpuroine M], the “Activity at ≤50 µM” value (HepG2) was “I”, the “Activity at ≤50 µM” value (SK-BR-3) was “I” and the “Activity at ≤50 µM” value (HT29) was “I”. For the same compound, the “Activity at ≤50 µM” value (MRC5) was “I”, the “Activity at ≤50 µM” value (MOLT-4) was “I” and the “Activity at ≤50 µM” value (MDA-MB-468) was “I”. The “Activity at ≤50 µM” value (THP-1) was “I”, the “Activity at ≤50 µM” value (HaCat) was “I” and the “Activity at ≤50 µM” value (MV-4-11) was “I”. For the same compound, the “Activity at ≤50 µM” value (MOLM-13) was “I” and the “Activity at ≤50 µM” value (A2058) was “I”.
